± gives the standard deviation of the reports.
glass transition temperature | Structure (SMILES)
185.50 °C | *c1ccc(Sc2ccc(Sc3ccc(N4C(=O)c5ccc(Sc6ccc(Sc7ccc(Sc8ccc9c(c8)C(=O)N(*)C9=O)cc7)cc6)cc5C4=O)cc3)s2)cc1 (repeat unit)
390.00 °C | *c1ccc(-c2ccc(-c3cnc4cc(Oc5ccc6nc(*)cnc6c5)ccc4n3)cc2)cc1 (repeat unit)
254.00 °C | *C(=O)c1ccc2c(c1)C(=O)N(C1CCC(CC3CCC(N4C(=O)c5ccc(*)cc5C4=O)CC3)CC1)C2=O (repeat unit)
70.00 °C | *Cc1cc(C)c(CNC(=O)CCCCC(=O)N*)cc1C (repeat unit)
295.00 °C | *C(=O)Nc1ccc(NC(=O)c2ccc3[nH]c(-c4cc(-c5nc6cc(*)ccc6[nH]5)cc(N5C(=O)c6ccccc6C5=O)c4)nc3c2)cc1 (repeat unit)
230.00 °C | *c1ccc(Oc2ccc(C(=O)c3cccc(C(=O)c4ccc(Oc5ccc(-c6nc(-c7ccccc7)[nH]c6*)cc5)cc4)c3)cc2)cc1 (repeat unit)
254.00 °C | *C(=O)Nc1ccc(Oc2ccc(C(c3ccc(Oc4ccc(NC(=O)c5ccc6c(c5)C(=O)N(c5ccc(Oc7ccc(C8(c9ccc(Oc%10ccc(N%11C(=O)c%12ccc(*)cc%12C%11=O)cc%10)cc9)CC9CC8C8CCCC98)cc7)cc5)C6=O)cc4)cc3)(C(F)(F)F)C(F)(F)F)cc2)cc1 (repeat unit)
69.50 °C | *CC(=O)NCCCCCCNC(=O)Cc1ccc(O*)cc1 (repeat unit)
51.00 °C | *Oc1ccc(Cc2ccc(OC(*)=O)c(C)c2)cc1C (repeat unit)
132.00 °C | *c1ccc2c(c1)C(=O)N(c1ccc(-c3ccc(N4C(=O)c5ccc(C(*)(C(F)(F)F)C(F)(F)F)cc5C4=O)c(OCCOc4ccc5c(C)cc(=O)oc5c4)c3)cc1OCCOc1ccc3c(C)cc(=O)oc3c1)C2=O (repeat unit)
210.00 °C | *Oc1cccc(Oc2ccc(-c3ccc(*)cc3)cc2)c1C#N (repeat unit)
33.00 °C | *Oc1cc(OC(=O)c2ccc(OC)cc2)c(OC(=O)CCCCCCCCCCCCCCC(*)=O)cc1OC(=O)c1ccc(OC)cc1 (repeat unit)
289.00 °C | *Nc1ccc(C(c2ccc(NC(=O)c3ccc(-c4ccc(C(*)=O)c(C)c4)cc3C)cc2)(C(F)(F)F)C(F)(F)F)cc1 (repeat unit)
143.00 °C | *c1ccc2c(c1)C(=O)N(c1ccc(OCCCCCCCCCCOc3ccc(N4C(=O)c5ccc(C(*)(C(F)(F)F)C(F)(F)F)cc5C4=O)cc3)cc1)C2=O (repeat unit)
329.00 °C | *c1ccc2oc(-c3cccc(-c4nc5cc(C(*)(C(F)(F)F)C(F)(F)F)ccc5o4)n3)nc2c1 (repeat unit)
90.90 °C | *CC(OC(=O)Oc1ccc(C(=O)OC)cc1)C(COC(=O)O*)OC(=O)Oc1ccc(C(=O)OC)cc1 (repeat unit)
200.03 °C | *Oc1ccc(Oc2ccc(C(=O)c3ccc(C(=O)c4ccc(*)cc4)c4ccccc34)cc2)cc1 (repeat unit)
223.00 °C | *c1c(C)cc(Cc2cc(C)c(N3C(=O)c4cccc(Oc5ccc(C(C)(C)c6ccc(Oc7cccc8c7C(=O)N(*)C8=O)cc6)cc5)c4C3=O)c(C)c2)cc1C (repeat unit)
42.00 °C | *Oc1ccc(CC(NC(=O)CCc2ccc(OC(=O)CCCCCCC(*)=O)cc2)C(=O)OCC(C)C)cc1 (repeat unit)

The next lines start with the compound.

Structure (SMILES) | glass transition temperature
*Oc1ccc(Nc2ccc(/N=N/c3ccc(Nc4ccc(*)cc4)cc3)cc2)cc1 (repeat unit) | 169.00 °C
*Cc1ccc2oc(=O)c(C(=O)Nc3ccc(Oc4ccc(C(c5ccc(Oc6ccc(NC(=O)c7cc8cc(*)ccc8oc7=O)cc6)cc5)(C(F)(F)F)C(F)(F)F)cc4)cc3)cc2c1 (repeat unit) | 283.00 °C
*Oc1cc(C(C)(C)C)c(Oc2ccc(C(=O)Nc3c(C)cc(Cc4cc(C)c(NC(=O)c5ccc(*)cc5)c(C(C)C)c4)cc3C(C)C)cc2)cc1C(C)(C)C (repeat unit) | 260.00 °C
*c1ccc(-c2cc(-c3ccc(-c4ccccc4)cc3)cc(-c3ccc(N4C(=O)c5ccc(NC(=O)Nc6cccc7c(NC(=O)Nc8ccc9c(c8)C(=O)N(*)C9=O)cccc67)cc5C4=O)cc3)n2)cc1 (repeat unit) | 254.00 °C
*CCN(*)C(=O)CCC (repeat unit) | 42.00 °C
*=Cc1cc(OCCCCCCCC)c(/C=N/c2ccc(N=*)cc2)cc1OCCCCCCCC (repeat unit) | 32.70 °C
*CC(C[Si](*)(C)C)c1ccccc1 (repeat unit) | -5.00 °C
*Oc1ccc(C(c2ccc(Oc3ccc(C(=O)c4cccc(C(=O)c5ccc(*)cc5)c4)cc3)cc2)(C(F)(F)F)C(F)(F)F)cc1 (repeat unit) | 168.10 °C
*C/C=C/CS(*)(=O)=O (repeat unit) | 86.00 °C
*c1cccc(Oc2ccc(P(=O)(c3ccccc3)c3ccccc3)c(Oc3cccc(N4C(=O)c5ccc(-c6ccc7c(c6)C(=O)N(*)C7=O)cc5C4=O)c3)c2)c1 (repeat unit) | 234.00 °C
*Oc1ccc(C(C)(C)c2ccc(OC(=O)Oc3ccc(Cc4ccc(OC(*)=O)cc4)cc3)cc2)cc1 (repeat unit) | 107.80 °C
*O[Si](C)(C)c1ccc([Si](C)(C)O[SiH](*)CCC(F)(F)F)cc1 (repeat unit) | -37.00 °C
*c1ccc2c(c1)C(=O)N(c1ccc(Oc3ccc(N4C(=O)c5ccc(C(F)(F)C(F)(F)C(F)(F)C(F)(F)C(F)(F)C(*)(F)F)cc5C4=O)cc3)cc1)C2=O (repeat unit) | 185.00 °C
*CC(*)(C)C(=O)OCCN(CC)CC (repeat unit) | 26.00 °C
*c1ccc(Oc2ccc(-c3nc4ccc(Oc5ccc6nc(*)c(-c7ccccc7)nc6c5)cc4nc3-c3ccccc3)cc2)cc1 (repeat unit) | 437.00 °C
*c1ccc2c(c1)C(=O)N(c1cccc(C(=O)Nc3ccc(Oc4ccccc4Oc4ccc(NC(=O)c5cccc(N6C(=O)c7ccc(C(*)(C(F)(F)F)C(F)(F)F)cc7C6=O)c5)cc4)cc3)c1)C2=O (repeat unit) | 265.00 °C
*CCCCCCCCCCOC(=O)CCCCCCC(=O)O* (repeat unit) | -22.00 °C
*c1cccc(N2C(=O)c3ccc(P(=O)(c4ccccc4)c4ccc5c(c4)C(=O)N(*)C5=O)cc3C2=O)c1 (repeat unit) | 323.00 °C
*Oc1cc(Br)c(C(C)(C)c2c(Br)cc(OC(*)=O)cc2Br)c(Br)c1 (repeat unit) | 267.00 °C
*O[Si](*)(C)CCCCCCCCCCC(=O)Oc1ccc(C(=O)Oc2ccc(OC(=O)c3ccc(OCC(C)CC)cc3)cc2)cc1 (repeat unit) | 28.50 °C
*=NP(=NP(=NC(=*)Oc1ccc(C(C)(C)C)cc1)(Oc1ccc(C(C)(C)C)cc1)Oc1ccc(C(C)(C)C)cc1)(Oc1ccc(C(C)(C)C)cc1)Oc1ccc(C(C)(C)C)cc1 (repeat unit) | 74.00 °C

Structure (SMILES) | glass transition temperature
*CC(*)C(F)(F)C(F)(F)F (repeat unit) [Poly[(pentafluoroethyl)ethylene] ] | 41 ± 0.6 °C
*Nc1ccc(Cc2ccc(NC(=O)NCCCCCCCCCCCCNC(*)=O)cc2)cc1 (repeat unit) | 51.00 °C
*CC(*)(CC(=O)OCCOCCOC)C(=O)OCCOCCOC (repeat unit) | -40.50 °C
*c1ccc(-c2ccc(-c3ccc(-c4ccc(-c5ccc6c(c5)C(=O)N(c5ccc(Oc7ccc(C(C)(C)c8ccc(Oc9ccc(N%10C(=O)c%11ccc(*)cc%11C%10=O)cc9)cc8)cc7)cc5)C6=O)cc4)cc3)cc2)cc1 (repeat unit) | 236.00 °C
*C([2H])([2H])C(*)(C(=O)OC([2H])([2H])C([2H])([2H])[2H])C([2H])([2H])[2H] (repeat unit) | 94.00 °C
*Nc1ccc(Cc2ccc(NC(=O)c3cc(C(*)=O)cc(N4C(=O)C5C6C=CC(C6)C5C4=O)c3)cc2)cc1 (repeat unit) | 303.00 °C
*CC(*)(C)C(=O)OCCCCl (repeat unit) | 50.00 °C
*Cc1ccc(C(C)(CC)c2ccc(Cn3c(=O)c4cc5c(=O)n(*)c(=O)c5cc4c3=O)o2)o1 (repeat unit) | 143.00 °C
*c1cccc(OCCCOc2cccc(N3C(=O)c4ccc(-c5ccc6c(c5)C(=O)N(*)C6=O)cc4C3=O)c2)c1 (repeat unit) | 184.00 °C
*CCC(=O)O* (repeat unit) | -24.00 °C
*CC(*)c1ccccc1O (repeat unit) | 172.00 °C
*CC(*)(C)C(=O)OCC(C)O (repeat unit) [Poly(2-hydroxypropyl methacrylate)] | 75.4 ± 1.9 °C
*CC(*)(C)C(=O)OCCCCCCOc1ccc(C(=O)Oc2ccc(C(=O)/C=C/c3c(C)c4ccccc4n3C)cc2)cc1 (repeat unit) | 98.00 °C
*c1ccc(Oc2cccc(NC(=O)c3cc(C(=O)Nc4cccc(Oc5ccc(-c6nnc(*)o6)cc5)c4)cc(N4C(=O)c5ccccc5C4=O)c3)c2)cc1 (repeat unit) | 245.00 °C
*c1ccc(Oc2ccc(-c3ccc(Oc4ccc(N5C(=O)c6cccc(Oc7c(C)cc(-c8cc(C)c(Oc9cccc%10c9C(=O)N(*)C%10=O)c(C)c8)cc7C)c6C5=O)cc4)cc3)cc2)cc1 (repeat unit) | 290.00 °C
*Nc1cccc(NC(=O)Cc2cc(CC(*)=O)c(C)cc2C)c1 (repeat unit) | 222.00 °C
*c1ccc(Oc2ccc(-c3cc(-c4ccccc4)c4cc(C5(c6ccc7nc(*)cc(-c8ccccc8)c7c6)c6ccccc6-c6ccccc65)ccc4n3)cc2)cc1 (repeat unit) | 315.00 °C
*C(F)C(*)(F)OC(F)(F)F (repeat unit) | -10.00 °C
*c1ccc(Oc2ccc(C(c3ccc(Oc4ccc(-c5nnc(*)n5-c5ccc(S(=O)(=O)c6ccccc6)cc5)cc4)cc3)(C(F)(F)F)C(F)(F)F)cc2)cc1 (repeat unit) | 211.00 °C
*O[Si](C)(C)O[Si](C)(C)O[Si](C)(C)O[Si](C)(C)O[Si](C)(C)Oc1c(*)c2ccccc2c2ccccc12 (repeat unit) | -38.00 °C
